Several values for one entry are separate records, joined by “and”; a condition that tells them apart may be missing. Identical values can stand only once.
What was measured:
OE19 (3A1) = target: T1, OE19 (3A1) (Homo sapiens, UniProt P30838); test: Cellular ALDEFLUOR assay in OE19 cells (preferential ALDH3A1 expression)
T1 sequence (P30838 1-453): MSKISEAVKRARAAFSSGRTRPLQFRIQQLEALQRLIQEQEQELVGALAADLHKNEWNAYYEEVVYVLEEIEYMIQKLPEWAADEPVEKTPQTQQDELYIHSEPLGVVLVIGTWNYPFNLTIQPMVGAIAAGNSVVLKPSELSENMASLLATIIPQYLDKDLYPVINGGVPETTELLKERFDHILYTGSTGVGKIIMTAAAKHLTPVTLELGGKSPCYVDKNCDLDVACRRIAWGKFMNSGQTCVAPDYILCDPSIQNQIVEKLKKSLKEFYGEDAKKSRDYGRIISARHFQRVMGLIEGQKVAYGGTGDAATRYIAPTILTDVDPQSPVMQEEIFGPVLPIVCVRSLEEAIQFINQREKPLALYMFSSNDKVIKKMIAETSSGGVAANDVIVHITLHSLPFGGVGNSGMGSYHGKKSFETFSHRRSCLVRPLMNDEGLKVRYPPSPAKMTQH

Human ALDH3A1 = target: T2, Human ALDH3A1 (Homo sapiens, UniProt P30838); test: ALDH3A1 biochemical assay (benzaldehyde/NADP+, diaphorase-resazurin readout, 1,536-well)
T2 sequence (P30838 1-453): T1 sequence (P30838 1-453)

[1] = Table S4, biochemical curve class
[2] = Table S5, biochemical curve class
[3] = Table S1, primary screen, curve class

| SMILES | AC50 (OE19 (3A1)) | Cell_Efficacy (OE19 (3A1); Table S4, OE19 cells) | Cell_CC-v2 (OE19 (3A1); Table S4, cellular curve class) | IC50 (OE19 (3A1); cellular IC50 (Aldefluor), OE19 cells) | AC50 (Human ALDH3A1) | IC50 (Human ALDH3A1; ALDH3A1 biochemical IC50) | Efficacy (Human ALDH3A1; Table S4, biochemical) | CC-v2 (Human ALDH3A1; [1]) | activity in the biochemical assay (Human ALDH3A1; in words) | Cell_Efficacy (OE19 (3A1); Table S5, OE19 cells) | Cell_CC-v2 (OE19 (3A1); Table S5, cellular curve class) | Efficacy (Human ALDH3A1; Table S5, biochemical) | CC-v2 (Human ALDH3A1; [2]) | Efficacy (Human ALDH3A1; Table S1, primary screen) | CC-v2 (Human ALDH3A1; [3]) |
| --- | --- | --- | --- | --- | --- | --- | --- | --- | --- | --- | --- | --- | --- | --- | --- |
| Cc1cccc(CNC(=O)c2csc(N3CCN(c4cccc(C(F)(F)F)c4)CC3)n2)c1 [Compound 5] | 3130 nM | -101.21 | -2.2 | 3130 nM | 230 nM | 230 nM and 229 nM | -100.07 | -1.1 |  |  |  |  |  |  |  |
| Cc1cccc(CNC(=O)c2csc(N3CCN(c4ccc(C(F)(F)F)cc4)CC3)n2)c1 [Compound 7] | 880 nM | -93.28 | -1.1 |  | 320 nM |  | -97.93 | -1.1 |  |  |  |  |  |  |  |
| Cc1cccc(CNC(=O)c2csc(N3CCN(c4cccc([N+](=O)[O-])c4)CC3)n2)c1 [Compound 8] | 500 nM | -115.29 | -2.1 |  | 360 nM |  | -84.72 | -1.1 |  |  |  |  |  |  |  |
| Cc1cccc(CNC(=O)c2csc(N3CCN(c4ccccc4Br)CC3)n2)c1 [Compound 9] | 8810 nM | -81.02 | -1.3 |  | 410 nM |  | -99.96 | -1.1 |  |  |  |  |  |  |  |
| Cc1cccc(CNC(=O)c2csc(N3CCN(c4cccc(Br)c4)CC3)n2)c1 [Compound 10] | 200 nM | -86.93 | -1.3 |  | 410 nM |  | -94.28 | -1.1 |  |  |  |  |  |  |  |
| Cc1cccc(CNC(=O)c2csc(N3CCN(c4ccc(Cl)cn4)CC3)n2)c1 [Compound 11] | 3510 nM | -68.27 | -1.2 |  | 460 nM |  | -99.36 | -1.1 | good activity |  |  |  |  |  |  |
| Cc1cccc(CNC(=O)c2csc(N3CCN(c4ccc(F)c(Cl)c4)CC3)n2)c1 [Compound 12] | 990 nM | -76.59 | -1.1 |  | 510 nM |  | -99.84 | -1.1 |  |  |  |  |  |  |  |
| Cc1cc(CNC(=O)c2csc(N3CCN(c4cccc(C(F)(F)F)c4)CC3)n2)ccc1Cl [Compound 16] | 34.2 nM |  |  |  | 7.9 nM |  |  |  |  | -81.01 | -1.1 | -106.26 | -1.1 |  |  |
| O=C(NCc1ccc2ccccc2c1)c1csc(N2CCN(c3cccc(C(F)(F)F)c3)CC2)n1 [Compound 17] | 40.7 nM |  |  |  | 11.9 nM |  |  |  |  | -93.35 | -1.1 | -92.05 | -1.1 |  |  |
| O=C(NCc1cccc(COc2ccccc2)c1)c1csc(N2CCN(c3cccc(C(F)(F)F)c3)CC2)n1 [Compound 18] | 43.1 nM |  |  |  | 14.1 nM |  |  |  |  | -79.42 | -1.1 | -100.33 | -1.1 |  |  |
| Cc1ccc(-c2cccc(CNC(=O)c3csc(N4CCN(c5cccc(C(F)(F)F)c5)CC4)n3)c2)cc1 [Compound 19] | 10.2 nM |  |  |  | 23.7 nM |  |  |  |  | -77.01 | -1.1 | -83.86 | -1.1 |  |  |
| O=C(NCc1cccc(N2CCC2=O)c1)c1csc(N2CCN(c3cccc(C(F)(F)F)c3)CC2)n1 [Compound 20] | 10.8 nM |  |  |  | 63.1 nM |  |  |  |  | -81.94 | -1.2 | -96.26 | -1.1 |  |  |
| O=C(NCc1nc(-c2ccccc2)no1)C1CCN(c2cc(-n3cncn3)ncn2)CC1 [NCGC00526793-01] |  |  |  |  | 35500 nM |  |  |  |  |  |  |  |  | -44.11 | -2.2 |
| Cc1cc(C)c(C)c([S+](=O)([O-])NCCC(=O)N2CCc3[nH]c(=O)c(C#N)cc3C2)c1C [NCGC00527311-01] |  |  |  |  | 28200 nM |  |  |  |  |  |  |  |  | -52.11 | -2.2 |
| COc1ccc(CCC(=O)N2CCc3[nH]c(=O)c(C#N)cc3C2)c(OC)c1OC [NCGC00527314-01] |  |  |  |  | 35500 nM |  |  |  |  |  |  |  |  | -47.14 | -2.4 |
| O=C(NCC(F)(F)F)c1cc(C2CCN(C(=O)c3cc(-c4ccco4)n[nH]3)CC2)n[nH]1 [NCGC00528999-01] |  |  |  |  | 14100 nM |  |  |  |  |  |  |  |  | -59.29 | -2.4 |
| CC(O)c1ccc(CCNC(=O)C(=O)Nc2cc3c4c(c2)CC(=O)N4CCC3)s1 (stereo not drawn) [NCGC00529385-01] |  |  |  |  | 11200 nM |  |  |  |  |  |  |  |  | -31.52 | -2.2 |
| Cc1cc(=O)[nH]c(N2CCC(NC(=O)NCc3ccco3)CC2)n1 [NCGC00530028-01] |  |  |  |  | 20000 nM |  |  |  |  |  |  |  |  | -57.15 | -2.2 |
| Cc1cc(OC2CN(C(=O)c3cc(-c4ccc(F)cc4)n[nH]3)C2)n2ncnc2n1 [NCGC00531207-01] |  |  |  |  | 14100 nM |  |  |  |  |  |  |  |  | -93.27 | -2.3 |
| Cc1cccc(CNC(=O)c2csc(N3CCN(c4ccc(C(F)(F)F)cn4)CC3)n2)c1 [NCGC01210237-01] | 3130 nM | -106.55 | -1.3 |  | 730 nM |  | -94.33 | -1.1 |  |  |  |  |  |  |  |
| Cc1cccc(CNC(=O)c2csc(N3CCN(c4cc(C(F)(F)F)nc5ccccc45)CC3)n2)c1 [NCGC01210239-01] | 9880 nM | -51.72 | -2.4 |  | 810 nM |  | -79.44 | -1.1 |  |  |  |  |  |  |  |
| Cc1cccc(CNC(=O)c2csc(N3CCN(c4ccc(C5(C#N)CC5)cc4)CC3)n2)c1 [NCGC01210256-01] | 15700 nM | -71.00 | -1.4 |  | 14500 nM |  | -66.81 | -1.2 |  |  |  |  |  |  |  |
| Cc1cccc(CNC(=O)c2csc(N3CCN(c4cccc(C(F)(F)F)n4)CC3)n2)c1 [NCGC01210535-01] | 7850 nM | -90.86 | -1.1 |  | 580 nM |  | -96.11 | -1.1 |  |  |  |  |  |  |  |
| Cc1cccc(CNC(=O)c2csc(N3CCN(c4ccc(C5(C#N)CCCC5)cc4)CC3)n2)c1 [NCGC01210598-01] | 3930 nM | -104.17 | -2.1 |  | 1020 nM |  | -62.83 | -1.2 |  |  |  |  |  |  |  |
| Cc1cccc(CNC(=O)c2csc(N3CCN(c4ccc(C5(C#N)CCCCC5)cc4)CC3)n2)c1 [NCGC01210611-01] | 620 nM | -33.71 | -1.2 |  | 730 nM |  | -77.35 | -1.2 |  |  |  |  |  |  |  |
| Cc1cccc(CNC(=O)c2csc(N3CCN(c4ncccc4C(F)(F)F)CC3)n2)c1 [NCGC01210654-01] | 35100 nM | -81.56 | -2.2 |  | 1020 nM |  | -95.69 | -1.1 |  |  |  |  |  |  |  |
| Cc1cccc(CNC(=O)c2csc(N3CCN(c4cccc(C#N)c4)CC3)n2)c1 [NCGC01210664-01] | 11100 nM | -103.93 | -2.1 |  | 1020 nM |  | -83.70 | -1.1 |  |  |  |  |  |  |  |
